Earlier results, collected in patent publication US20060198926A1, “ALPHA-PYRONE COMPOSITION FOR CONTROLLING CRAVING AND AS A SUBSTITUTE FOR ALCOHOL” (priority 1999, published 2006).

Test system: dopaminergic neurons of the nucleus accumbens
Conditions: administered in vivo by microdialysis into the nucleus accumbens (Baum 1998)

| SMILES | levels of dopamine in the nucleus accumbens |
| --- | --- |
| COc1ccc(/C=C/c2cc(OC)cc(=O)o2)cc1 [yangonin] | decreases dopamine to undetectable levels |
| COc1cc(/C=C/c2ccccc2)oc(=O)c1 [desmethoxyyangonin] | increase in dopamine |
